For two compounds, IC50 results are on record in ChEMBL document CHEMBL1126870, “The crystal structure, absolute configuration, and phosphodiesterase inhibitory activity of (+)-1-(4-bromobenzyl)-4-(3-(cyclopentyloxy)- 4-methoxyphenyl)-pyrrolidin-2-one” (J Med Chem, 1993).

The assay addresses Phosphodiesterase 4 (Homo sapiens, UniProt P27815+Q08499+Q07343+Q08493). As to the kind of experiment: Inhibition of partially-purified PDE 4 from human monocytes.

As to `COc1ccc([C@@H]2CC(=O)N(Cc3ccc(Br)cc3)C2)cc1OC1CCCC1`, the IC50 (as a rule, the point on the concentration scale where inhibition reaches its midpoint) was 170 nM.
Next, `COc1ccc([C@H]2CC(=O)N(Cc3ccc(Br)cc3)C2)cc1OC1CCCC1`: 740 nM.
